From PMC4450297, “Screening Active Compounds from Garcinia Species Native to China Reveals Novel Compounds Targeting the STAT/JAK Signaling Pathway” (BioMed Research International, 2015)

tested on: M059J; assay: Cell panel screen (CellTiter-Glo); assay type: cell-based, human; conditions: M059J (Brain), 20 micromolar, 72 hrs
Experimental: (§1) All cells were obtained from the cell bank of the American Type Culture Collection (ATCC) and cultured in the supplier's recommended media supplemented with 10% FBS. The cell panel screen was measured using the CellTiter-Glo assay (Promega, Madison, WI) following a standard protocol. Briefly, cancer cells were seeded in 96-well plates and cultured overnight at 37°C with or without 5% CO2 in an incubator. Each compound was dissolved with limited DMSO and diluted to a certain concentration with culture medium and then added to the corresponding well of the cell plate. The final concentration of compound was 20 μM. The control cells (without treatment) received the same amount of DMSO and were incubated under the same conditions. After 72 h cultivation, 100 μL of the CellTiter-Glo reagent was added directly to each well for 10-minute incubation. The plate was then read on a FlexStation 3 microplate luminometer (Molecular Devices, USA) to monitor the luminescence signal generated by the luciferase-catalyzed reaction of luciferin and ATP. The percent of growth inhibition was calculated using the following formula: (untreated cells − treated cells)/(untreated cells − background without cells) ∗ 100.

Row | Structure (SMILES) | Percent Inhibition [%]
1 | CC(C)=CCc1c(O)cc(O)c2c1O[C@]13C(=C[C@@H]4C[C@H]1C(C)(C)O[C@@]3(CC=C(C)C)C4=O)C2=O [GB35] | 100

tested on: NCI-H2405; assay: Cell panel screen (CellTiter-Glo); assay type: cell-based, human; conditions: NCI-H2405 (Lung), 20 micromolar, 72 hrs
Experimental: as §1

Row | Structure (SMILES) | Percent Inhibition [%]
2 | CC(C)=CCc1c(O)cc(O)c2c1O[C@]13C(=C[C@@H]4C[C@H]1C(C)(C)O[C@@]3(CC=C(C)C)C4=O)C2=O [GB35] | 99

tested on: NCI-H2347; assay: Cell panel screen (CellTiter-Glo); assay type: cell-based, human; conditions: NCI-H2347 (Lung), 20 micromolar, 72 hrs
Experimental: as §1

Row | Structure (SMILES) | Percent Inhibition [%]
3 | CC(C)=CCc1c(O)cc(O)c2c1O[C@]13C(=C[C@@H]4C[C@H]1C(C)(C)O[C@@]3(CC=C(C)C)C4=O)C2=O [GB35] | 97

tested on: T47D; assay: Cell panel screen (CellTiter-Glo); assay type: cell-based, human; conditions: T47D (Breast), 20 micromolar, 72 hrs
Experimental: as §1

Row | Structure (SMILES) | Percent Inhibition [%]
4 | CC(C)=CCc1c(O)cc(O)c2c1O[C@]13C(=C[C@@H]4C[C@H]1C(C)(C)O[C@@]3(CC=C(C)C)C4=O)C2=O [GB35] | 100

tested on: HPAF-II; assay: Cell panel screen (CellTiter-Glo); assay type: cell-based, human; conditions: HPAF-II (Pancreas), 20 micromolar, 72 hrs
Experimental: as §1

Row | Structure (SMILES) | Percent Inhibition [%]
5 | CC(C)=CCc1c(O)cc(O)c2c1O[C@]13C(=C[C@@H]4C[C@H]1C(C)(C)O[C@@]3(CC=C(C)C)C4=O)C2=O [GB35] | 100

tested on: C8166; assay: Cell panel screen (CellTiter-Glo); assay type: cell-based, human; conditions: C8166 (Leukemia), 20 micromolar, 72 hrs
Experimental: as §1

Row | Structure (SMILES) | Percent Inhibition [%]
6 | CC(C)=CCc1c(O)cc(O)c2c1O[C@]13C(=C[C@@H]4C[C@H]1C(C)(C)O[C@@]3(CC=C(C)C)C4=O)C2=O [GB35] | 99

tested on: BT-474; assay: Cell panel screen (CellTiter-Glo); assay type: cell-based, human; conditions: BT-474 (Breast), 20 micromolar, 72 hrs
Experimental: as §1

Row | Structure (SMILES) | Percent Inhibition [%]
7 | CC(C)=CCc1c(O)cc(O)c2c1O[C@]13C(=C[C@@H]4C[C@H]1C(C)(C)O[C@@]3(CC=C(C)C)C4=O)C2=O [GB35] | 99

tested on: HT-1197; assay: Cell panel screen (CellTiter-Glo); assay type: cell-based, human; conditions: HT-1197 (Urinary bladder), 20 micromolar, 72 hrs
Experimental: as §1

Row | Structure (SMILES) | Percent Inhibition [%]
8 | CC(C)=CCc1c(O)cc(O)c2c1O[C@]13C(=C[C@@H]4C[C@H]1C(C)(C)O[C@@]3(CC=C(C)C)C4=O)C2=O [GB35] | 96

tested on: NCI-H28; assay: Cell panel screen (CellTiter-Glo); assay type: cell-based, human; conditions: NCI-H28 (Lung), 20 micromolar, 72 hrs
Experimental: as §1

Row | Structure (SMILES) | Percent Inhibition [%]
9 | CC(C)=CCc1c(O)cc(O)c2c1O[C@]13C(=C[C@@H]4C[C@H]1C(C)(C)O[C@@]3(CC=C(C)C)C4=O)C2=O [GB35] | 93

tested on: HCC1599; assay: Cell panel screen (CellTiter-Glo); assay type: cell-based, human; conditions: HCC1599 (Breast), 20 micromolar, 72 hrs
Experimental: as §1

Row | Structure (SMILES) | Percent Inhibition [%]
10 | CC(C)=CCc1c(O)cc(O)c2c1O[C@]13C(=C[C@@H]4C[C@H]1C(C)(C)O[C@@]3(CC=C(C)C)C4=O)C2=O [GB35] | 100

tested on: MSTO-211-H; assay: Cell panel screen (CellTiter-Glo); assay type: cell-based, human; conditions: MSTO-211-H (Lung), 20 micromolar, 72 hrs
Experimental: as §1

Row | Structure (SMILES) | Percent Inhibition [%]
11 | CC(C)=CCc1c(O)cc(O)c2c1O[C@]13C(=C[C@@H]4C[C@H]1C(C)(C)O[C@@]3(CC=C(C)C)C4=O)C2=O [GB35] | 99

tested on: HCC1395; assay: Cell panel screen (CellTiter-Glo); assay type: cell-based, human; conditions: HCC1395 (Breast), 20 micromolar, 72 hrs
Experimental: as §1

Row | Structure (SMILES) | Percent Inhibition [%]
12 | CC(C)=CCc1c(O)cc(O)c2c1O[C@]13C(=C[C@@H]4C[C@H]1C(C)(C)O[C@@]3(CC=C(C)C)C4=O)C2=O [GB35] | 100

tested on: Bel-7402; assay: Cell panel screen (CellTiter-Glo); assay type: cell-based, human; conditions: Bel-7402 (Liver), 20 micromolar, 72 hrs
Experimental: as §1

Row | Structure (SMILES) | Percent Inhibition [%]
13 | CC(C)=CCc1c(O)cc(O)c2c1O[C@]13C(=C[C@@H]4C[C@H]1C(C)(C)O[C@@]3(CC=C(C)C)C4=O)C2=O [GB35] | 99

tested on: HCC1937; assay: Cell panel screen (CellTiter-Glo); assay type: cell-based, human; conditions: HCC1937 (Breast), 20 micromolar, 72 hrs
Experimental: as §1

Row | Structure (SMILES) | Percent Inhibition [%]
14 | CC(C)=CCc1c(O)cc(O)c2c1O[C@]13C(=C[C@@H]4C[C@H]1C(C)(C)O[C@@]3(CC=C(C)C)C4=O)C2=O [GB35] | 100

tested on: BT-549; assay: Cell panel screen (CellTiter-Glo); assay type: cell-based, human; conditions: BT-549 (Breast), 20 micromolar, 72 hrs
Experimental: as §1

Row | Structure (SMILES) | Percent Inhibition [%]
15 | CC(C)=CCc1c(O)cc(O)c2c1O[C@]13C(=C[C@@H]4C[C@H]1C(C)(C)O[C@@]3(CC=C(C)C)C4=O)C2=O [GB35] | 100

tested on: TCCSUP; assay: Cell panel screen (CellTiter-Glo); assay type: cell-based, human; conditions: TCCSUP (Urinary bladder), 20 micromolar, 72 hrs
Experimental: as §1

Row | Structure (SMILES) | Percent Inhibition [%]
16 | CC(C)=CCc1c(O)cc(O)c2c1O[C@]13C(=C[C@@H]4C[C@H]1C(C)(C)O[C@@]3(CC=C(C)C)C4=O)C2=O [GB35] | 100

tested on: NCI-H1770; assay: Cell panel screen (CellTiter-Glo); assay type: cell-based, human; conditions: NCI-H1770 (Lung), 20 micromolar, 72 hrs
Experimental: as §1

Row | Structure (SMILES) | Percent Inhibition [%]
17 | CC(C)=CCc1c(O)cc(O)c2c1O[C@]13C(=C[C@@H]4C[C@H]1C(C)(C)O[C@@]3(CC=C(C)C)C4=O)C2=O [GB35] | 100

tested on: ChaGo-K-1; assay: Cell panel screen (CellTiter-Glo); assay type: cell-based, human; conditions: ChaGo-K-1 (Lung), 20 micromolar, 72 hrs
Experimental: as §1

Row | Structure (SMILES) | Percent Inhibition [%]
18 | CC(C)=CCc1c(O)cc(O)c2c1O[C@]13C(=C[C@@H]4C[C@H]1C(C)(C)O[C@@]3(CC=C(C)C)C4=O)C2=O [GB35] | 99
